# Target: T1, STK17B (DRAK2) (Homo sapiens, UniProt O94768)
# T1 construct: purchased Thermo Fisher Scientific (Life Technologies) SelectScreen
# Assay: SelectScreen LanthaScreen
# Type: binding
# Settings: read-out: % displacement
# Method in brief: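 NU5455 was profiled across the SelectScreen Broad panel of kinase activity and binding assays. Z'LYTE reactions such as CSF1R ran at apparent Km ATP, while the Adapta CAMK1 assay used ATP listed as 10. Values are given as percent.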
# T1 sequence (O94768 whole entry): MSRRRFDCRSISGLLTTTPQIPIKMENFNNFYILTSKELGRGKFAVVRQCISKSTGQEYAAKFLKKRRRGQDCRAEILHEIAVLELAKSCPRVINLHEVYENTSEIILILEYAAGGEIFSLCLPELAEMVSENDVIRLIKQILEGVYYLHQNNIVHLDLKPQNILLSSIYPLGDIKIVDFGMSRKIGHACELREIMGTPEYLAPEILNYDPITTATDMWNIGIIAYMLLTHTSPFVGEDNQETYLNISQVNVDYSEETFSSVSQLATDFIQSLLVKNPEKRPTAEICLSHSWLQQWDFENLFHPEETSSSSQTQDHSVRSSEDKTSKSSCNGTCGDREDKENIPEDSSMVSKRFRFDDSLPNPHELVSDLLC
smiles,measurement,value
CN(C(=O)CN1CCOCC1)c1ccc2sc3c(-c4cccc5c(=O)cc(N6CC7CCC(C6)O7)oc45)cccc3c2c1 [NU5455],inhibition at 1 µM,2.7%
